The values that follow are results of earlier work, collected in US12728096B2, “Pharmaceutical composition comprising enzalutamide” (Synthon B.V., priority 2019, dated 2026).

The structures appear in SMILES notation.

For data set [1] the following is noted: pH 1 to 11.

For `CNC(=O)c1ccc(N2C(=S)N(c3ccc(C#N)c(C(F)(F)F)c3)C(=O)C2(C)C)cc1F` [Enzalutamide, 4-[3-[4-cyano-3-(trifluoromethyl)phenyl]-5,5-dimethyl-4-oxo-2-sulfanylideneimidazolidin-1-yl]-2-fluoro-N-methylbenzamide], the “permeability (BCS)” value is “high permeability” and the “solubility (BCS)” value is “low solubility”. For the same molecule, in data set [1], the solubility in water entry is “practically insoluble”.
